How the values were obtained:
[1] = target: T1, Spns2 (Spinster homolog 2) (Homo sapiens, UniProt Q8IVW8); assay: cryo-EM structure ([…] Å); affinity selection mass spectrometry; cell-based S1P efflux assay; assay type: binding
T1 construct: Spns2fusion: PGS (Pyrococcus abyssi glycogen synthase) fused between F222 and T223 on intracellular loop 2
T1 sequence (Q8IVW8 1-222 limits assumed): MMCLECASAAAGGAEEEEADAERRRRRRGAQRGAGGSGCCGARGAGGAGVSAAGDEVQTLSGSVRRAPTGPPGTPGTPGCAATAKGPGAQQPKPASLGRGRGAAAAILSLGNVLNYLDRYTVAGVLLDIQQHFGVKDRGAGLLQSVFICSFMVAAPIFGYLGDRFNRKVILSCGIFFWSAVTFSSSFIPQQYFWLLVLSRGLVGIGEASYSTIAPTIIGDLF
T1 sequence (Q8IVW8 223-549 limits assumed): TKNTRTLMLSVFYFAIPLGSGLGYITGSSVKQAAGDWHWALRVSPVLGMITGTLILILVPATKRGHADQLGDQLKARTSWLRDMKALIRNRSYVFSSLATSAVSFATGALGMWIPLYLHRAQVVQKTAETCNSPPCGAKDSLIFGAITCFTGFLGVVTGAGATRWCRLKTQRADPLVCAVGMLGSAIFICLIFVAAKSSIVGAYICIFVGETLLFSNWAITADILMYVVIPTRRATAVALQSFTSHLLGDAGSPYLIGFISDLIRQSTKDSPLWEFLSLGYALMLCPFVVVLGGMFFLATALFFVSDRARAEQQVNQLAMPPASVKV

[2] = target: T2, Spns2 (Spinster homolog 2) (Homo sapiens, UniProt Q8IVW8); assay: cell-based FTY720-P transport assay, WT vs mutants
T2 sequence (Q8IVW8 1-549): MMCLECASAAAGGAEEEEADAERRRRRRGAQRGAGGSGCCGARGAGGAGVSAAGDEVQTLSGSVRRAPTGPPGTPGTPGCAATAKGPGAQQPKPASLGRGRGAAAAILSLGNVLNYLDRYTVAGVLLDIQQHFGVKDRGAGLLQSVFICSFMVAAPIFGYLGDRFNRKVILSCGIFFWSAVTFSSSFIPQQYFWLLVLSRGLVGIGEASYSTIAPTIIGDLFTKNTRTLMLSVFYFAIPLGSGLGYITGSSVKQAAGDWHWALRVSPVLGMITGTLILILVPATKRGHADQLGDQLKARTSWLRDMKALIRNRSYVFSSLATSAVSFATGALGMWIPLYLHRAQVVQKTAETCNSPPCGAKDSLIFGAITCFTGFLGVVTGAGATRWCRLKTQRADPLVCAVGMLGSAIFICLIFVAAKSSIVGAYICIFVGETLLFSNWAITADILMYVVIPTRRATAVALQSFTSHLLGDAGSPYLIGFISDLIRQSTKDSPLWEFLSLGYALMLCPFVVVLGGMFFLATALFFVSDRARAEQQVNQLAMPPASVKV

Row | Compound | cryo-EM structure (3.60 Å); affinity selection mass spectrometry; cell-based S1P [1] | cell-based FTY720-P transport assay, WT vs mutants [2]
1 | CCCCCCCCCCCCC/C=C/[C@@H](O)[C@@H](N)COP(=O)(O)O [S1P, sphingosine-1-phosphate] | The affinity selection mass spectrometry results confirmed that endogenous S1P bound to Spns2fusion | –
2 | CCCCCCCCc1ccc(CC[C@](N)(CO)COP(=O)(O)O)cc1 [FTY720-P] | – | substitutions also significantly decreased FTY720-P transport activity, which indicates a similar FTY720-P transport mechanism as S1P
